Experimental data published in PMC2992454 (ACS chemical neuroscience, 2010).

Assays:
20S proteasome = conditions: localize inside the 20S subunit along the active proteolytic site; ref [14], [15]; cited from earlier work
[1] = molecular target: h20S proteasome, chymotrypsin-like activity (Homo sapiens, UniProt P28074); experiment: Kinetic analysis of proteasome chymotrypsin-like activity with or without Aβ; assay type: biochemical; conditions: pH 7.8, 37°C; for Vmax: LLVY-AMC 0–200 µM, 40 ng h20S in 100 µL

| Vmax ([1]; 0 µM Aβ(1–42)) | Vmax ([1]; 1 µM oligomeric Aβ(1–42)) | Vmax ([1]; 5 µM oligomeric Aβ(1–42)) | Vmax, lower end over all Aβ concentrations ([1]; oligomeric Aβ(1–42) 0–5 µM, Table 1: 0 and 0.5 µM Aβ, LLVY-AMC) [µM/min] | Vmax, upper end over all Aβ concentrations ([1]; oligomeric Aβ(1–42) 0–5 µM, Table 1: 5 µM Aβ, LLVY-AMC) [µM/min] | Substance | effect on chymotrypsin-like activity of the proteasome (20S proteasome) |
| --- | --- | --- | --- | --- | --- | --- |
|  |  |  |  |  | Aβ(1–40): Aβ(1–40) peptides | inhibit the chymotrypsin-like activity of the proteasome |
| 3.1 ± 0.1 x10^−2µM/min | 3.5 ± 0.2 x10^−2µM/min | 3.7 ± 0.3 x10^−2µM/min | 0.031 ± 0.001 | 0.037 ± 0.003 | N-Succinyl-Leu-Leu-Val-Tyr-AMC [LLVY-AMC] |  |
